Measured values published in publication PMC6094047 (Antiviral Research, 2018).
Read-outs that look alike come from different tables or passages of the source.

Assays:
[1] = tested on: influenza; parameters: method as in Rossignol, 2018; conditions: vs placebo, twice daily for 5 days, subjects enrolled within 36 h of symptom onset and followed up daily; ref Rossignol, 2018; cited from earlier work
[2] = tested on: B/Yamagata-lineage virus neuraminidase (NA); parameters: method as in Gubareva et al., 2017a; Monto et al., 2006; conditions: ref Gubareva et al., 2017a, Monto et al., 2006, cited from earlier work
[3] = tested on: B/Victoria-lineage virus neuraminidase (NA); conditions: cited from earlier work
[4] = tested on: A(H3N2) virus neuraminidase (NA); assay type: biochemical, influenza A(H3N2) virus
[5] = tested on: uncomplicated influenza; conditions: phase III, ref Epstein, 2017; cited from earlier work
[6] = frequency of reported adverse events similar to placebo; cited from earlier work
[7] = tested on: influenza; parameters: method as in Haffizula et al., 2014; conditions: 600 mg twice daily for five days, ref Haffizula et al., 2014, cited from earlier work
[8] = tested on: uncomplicated influenza; parameters: method as in Hayden, 2018; conditions: phase III, given <48 h after onset of symptoms; ref Hayden, 2018; cited from earlier work
[9] = B/Victoria-lineage NA A245T, ref Leang et al., 2014
[10] = B/Victoria-lineage NA D197N, ref Gubareva et al., 1998, 2017b, Ison et al., 2006, Mishin et al., 2005

CCOC(=O)C1=C[C@@H](OC(CC)CC)[C@H](NC(C)=O)[C@@H](N)C1 [Oseltamivir]
improvement in median time to alleviation of symptoms [1]: 50 h | fold increase in IC50 ([2]; B/Yamagata-lineage NA I221T): greater than 5 fold | inhibition phenotype associated with NA AAS (NI/RI/HRI) [3, 9]: RI (type B viruses 5- to 50-fold) | inhibition phenotype associated with NA AAS (NI/RI/HRI) [3, 10]: RI (type B viruses 5- to 50-fold)

[H]/N=C(\N)N[C@H]1C=C(C(=O)O)O[C@@H]([C@H](OC)[C@H](O)CO)[C@@H]1NC(C)=O [Laninamivir]
IC50 fold-change compared to reference median IC50 values [4]: 17 fold

CCC(CC)[C@H](NC(C)=O)[C@@H]1[C@H](O)[C@@H](C(=O)O)C[C@H]1N=C(N)N [Peramivir]
IC50 fold-change compared to reference median IC50 values [4]: 5.3 fold | inhibition phenotype (NI/RI/HRI) [4]: NI (key: normal inhibition (NI) (type A viruses <10-fold; reduced inhibition (RI) (type A viruses 10- to 100-fold; highly reduced inhibition (HRI) (type A viruses >100-fold) | inhibition phenotype associated with NA AAS (NI/RI/HRI) ([2]; B/Yamagata-lineage NA I221V and I221T): RI (type B viruses 5- to 50-fold) | inhibition phenotype associated with NA AAS (NI/RI/HRI) [3, 9]: RI (type B viruses 5- to 50-fold) | inhibition phenotype associated with NA AAS (NI/RI/HRI) [3, 10]: RI (type B viruses 5- to 50-fold) | inhibition phenotype associated with NA AAS (NI/RI/HRI) ([3]; B/Victoria-lineage NA K360E, D432G or H273Y, ref WHO-AVWG NAI substitution table): RI (type B viruses 5- to 50-fold)

NC(=O)c1nc(F)c[nH]c1=O [favipiravir, Favipiravir]
reduction of median time to alleviation of symptoms compared to placebo [5]: 6 to 14 h

CC(=O)Oc1ccccc1C(=O)Nc1ncc([N+](=O)[O-])s1 [nitazoxanide, Nitazoxanide]
tolerability, adverse events [6]: well tolerated | improvement in median time to alleviation of symptoms [1]: 50 h | median improvement in alleviation of influenza symptoms ([7]; enrolled within 48 h of symptom onset, p = 0.0084): 22 h | virus shedding ([7]; p = 0.0006): significant reduction

CC(=O)N[C@H]1[C@H]([C@H](O)[C@H](O)CO)OC(C(=O)O)=C[C@@H]1N=C(N)N [Zanamivir]
inhibition phenotype associated with NA AAS (NI/RI/HRI) [3, 9]: RI (type B viruses 5- to 50-fold) | inhibition phenotype associated with NA AAS (NI/RI/HRI) [3, 10]: RI (type B viruses 5- to 50-fold)

O=C1c2c(O)c(=O)ccn2N([C@@H]2c3ccccc3SCc3c2ccc(F)c3F)[C@@H]2COCCN12 [baloxavir, Baloxavir]
alleviation of symptoms faster than placebo [8]: 26.5 h
